pIC50: −log10 of the molar value. Calls of active or inactive are those of the source. No cut-off for these calls is given here.
How the values were obtained:
[1] = molecular target: T1, Lysine-specific histone demethylase 1A (Homo sapiens, UniProt O60341); assay: Inhibition of recombinant LSD1 (unknown origin) preincubated for 10 mins in presence of H3K4Me2 measured after 30 mins by measuring fluorescence intensity by fluorescence based microplate reader
MGC-803 = assay: Antiproliferative activity against human MGC-803 cells incubated for 48 hrs measured by MTT assay; assay type: functional, cell-based; conditions: MGC-803, 48 h
KYSE-450 = assay: Antiproliferative activity against human KYSE-450 cells incubated for 48 hrs measured by MTT assay; assay type: functional, cell-based; conditions: KYSE-450, 48 h
HCT-116 = assay: Antiproliferative activity against human HCT-116 cells incubated for 48 hrs measured by MTT assay; assay type: functional, cell-based; conditions: HCT-116, 48 h
[2] = molecular target: T1, Lysine-specific histone demethylase 1A; assay: Inhibition of LSD1 in human MGC-803 cells assessed as increase in methylation of H3K4 at 24 micromol/L; assay type: cell-based; conditions: dose 24.0 µmol/L
[3] = molecular target: T1, Lysine-specific histone demethylase 1A; assay: Inhibition of LSD1 in human MGC-803 cells assessed as increase in methylation of H3K9 at 24 micromol/L; assay type: cell-based; conditions: dose 24.0 µmol/L

**Q.** With `NC(=O)C1CCN(C(=O)c2cccc(CN[C@@H]3C[C@H]3c3ccc(F)c(F)c3)c2)CC1` as the molecule, how does the pIC50 [1] read?
**A.** The pIC50 was 6.97.

**Q.** And the pIC50 (MGC-803)?
**A.** Its pIC50 is less than 3.89.

**Q.** And the pIC50 (KYSE-450)?
**A.** Its pIC50 is less than 3.89.

**Q.** What about the pIC50 (HCT-116) of the same molecule?
**A.** Its pIC50 is less than 3.89.

**Q.** With `O=C(c1cccc(CN[C@@H]2C[C@H]2c2ccc(F)c(F)c2)c1)N1CC2CCCCC2C1` (stereo not given in full) as the molecule, how does the pIC50 [1] read?
**A.** The pIC50 was 7.24.

**Q.** And the pIC50 (MGC-803)?
**A.** Its pIC50 is 4.29.

**Q.** What about the pIC50 (KYSE-450) of the same molecule?
**A.** Its pIC50 is 4.16.

**Q.** What about the pIC50 (HCT-116) of the same molecule?
**A.** The pIC50 was 4.25.

**Q.** `NCC1CCN(C(=O)c2cccc(CN[C@@H]3C[C@H]3c3ccc(F)c(F)c3)c2)CC1` was tested. Which pIC50 [1] did it give?
**A.** Its pIC50 is 6.74.

**Q.** What about the pIC50 (MGC-803) of the same molecule?
**A.** Its pIC50 is less than 3.89.

**Q.** What about the pIC50 (KYSE-450) of the same molecule?
**A.** Its pIC50 is less than 3.89.

**Q.** And the pIC50 (HCT-116)?
**A.** The pIC50 was less than 3.89.

**Q.** `O=C(NCC1CCNCC1)c1cccc(CN[C@@H]2C[C@H]2c2ccc(F)c(F)c2)c1` was tested. Which pIC50 [1] did it give?
**A.** Its pIC50 is 6.76.

**Q.** With `O=C(Nc1cccc(S(=O)(=O)N2CCOCC2)c1)c1cccc(CN[C@@H]2C[C@H]2c2ccc(F)c(F)c2)c1` as the molecule, how does the pIC50 [1] read?
**A.** Its pIC50 is 7.49.

**Q.** And the pIC50 (MGC-803)?
**A.** The pIC50 was 4.53.

**Q.** And the pIC50 (KYSE-450)?
**A.** Its pIC50 is 4.41.

**Q.** What about the pIC50 (HCT-116) of the same molecule?
**A.** Its pIC50 is 4.44.

**Q.** With `O=C(c1cccc(CN[C@@H]2C[C@H]2c2ccc(F)c(F)c2)c1)N1CCC(O)CC1` as the molecule, how does the pIC50 [1] read?
**A.** The pIC50 was 6.85.

**Q.** `O=C(O)c1cccc(CN[C@@H]2C[C@H]2c2ccc(F)c(F)c2)c1` was tested. Which pIC50 [1] did it give?
**A.** The pIC50 was 6.29.

**Q.** With `CN1CCN(c2ccc(NC(=O)c3cccc(CN[C@@H]4C[C@H]4c4ccc(F)c(F)c4)c3)cc2)CC1` as the molecule, how does the pIC50 [1] read?
**A.** The pIC50 was 6.60.

**Q.** With `O=C(O)c1cccc(NC(=O)c2cccc(CN[C@@H]3C[C@H]3c3ccc(F)c(F)c3)c2)c1` as the molecule, how does the pIC50 [1] read?
**A.** The pIC50 was 6.32.

**Q.** How did the pIC50 [1] turn out when `NC(=O)CNC(=O)c1cccc(CN[C@@H]2C[C@H]2c2ccc(F)c(F)c2)c1` was run?
**A.** The pIC50 was 6.97.

**Q.** How did the pIC50 [1] turn out when `COC(=O)c1cccc(NC(=O)c2cccc(CN[C@@H]3C[C@H]3c3ccc(F)c(F)c3)c2)c1` was run?
**A.** Its pIC50 is 7.49.

**Q.** And the pIC50 (MGC-803)?
**A.** The pIC50 was 4.30.

**Q.** And the pIC50 (KYSE-450)?
**A.** Its pIC50 is 4.17.

**Q.** And the pIC50 (HCT-116)?
**A.** Its pIC50 is 4.34.

**Q.** With `CCCCNC(=O)c1cccc(CN[C@@H]2C[C@H]2c2ccc(F)c(F)c2)c1` as the molecule, how does the pIC50 [1] read?
**A.** Its pIC50 is 6.69.

**Q.** How did the pIC50 [1] turn out when `CN(Cc1ccccc1)C(=O)c1cccc(CN[C@@H]2C[C@H]2c2ccc(F)c(F)c2)c1` was run?
**A.** Its pIC50 is 7.38.

**Q.** `Cc1ccc(NC(=O)c2cccc(CN[C@@H]3C[C@H]3c3ccc(F)c(F)c3)c2)cc1` was tested. Which pIC50 [1] did it give?
**A.** The pIC50 was 7.44.

**Q.** `NC1CCN(C(=O)c2cccc(CN[C@@H]3C[C@H]3c3ccc(F)c(F)c3)c2)CC1` was tested. Which pIC50 [1] did it give?
**A.** Its pIC50 is 6.18.

**Q.** With `CN1CCN(C(=O)c2cccc(CN[C@@H]3C[C@H]3c3ccc(F)c(F)c3)c2)CC1` as the molecule, how does the pIC50 [1] read?
**A.** Its pIC50 is 6.65.

**Q.** Which results are given for `CCN1CCN(c2ccc(NC(=O)c3cccc(CN[C@@H]4C[C@H]4c4ccc(F)c(F)c4)c3)cc2)CC1`?
**A.** pIC50 [1]: 7.37; pIC50 (MGC-803): 4.55; pIC50 (KYSE-450): 4.61; pIC50 (HCT-116): 4.55

**Q.** How did the pIC50 [1] turn out when `COCCNC(=O)c1cccc(CN[C@@H]2C[C@H]2c2ccc(F)c(F)c2)c1` was run?
**A.** Its pIC50 is 6.64.

**Q.** How did the pIC50 [1] turn out when `O=C(NC1CC(F)(F)C1)c1cccc(CN[C@@H]2C[C@H]2c2ccc(F)c(F)c2)c1` was run?
**A.** The pIC50 was 6.94.

**Q.** What about the pIC50 (MGC-803) of the same molecule?
**A.** The pIC50 was 4.26.

**Q.** What about the pIC50 (KYSE-450) of the same molecule?
**A.** Its pIC50 is 4.19.

**Q.** And the pIC50 (HCT-116)?
**A.** Its pIC50 is 4.24.

**Q.** With `O=C(c1cccc(CN[C@@H]2C[C@H]2c2ccc(F)c(F)c2)c1)N1CCc2ccccc21` as the molecule, how does the pIC50 [1] read?
**A.** The pIC50 was 7.58.

**Q.** And the pIC50 (MGC-803)?
**A.** Its pIC50 is 4.47.

**Q.** What about the pIC50 (KYSE-450) of the same molecule?
**A.** The pIC50 was 4.29.

**Q.** And the pIC50 (HCT-116)?
**A.** Its pIC50 is 4.30.

**Q.** `c1ccc([C@@H]2C[C@H]2NC2CCNCC2)cc1` was tested. Which pIC50 (MGC-803) did it give?
**A.** The pIC50 was less than 4.19.

**Q.** What about the pIC50 (KYSE-450) of the same molecule?
**A.** The pIC50 was less than 4.19.

**Q.** What about the pIC50 (HCT-116) of the same molecule?
**A.** Its pIC50 is less than 4.19.

**Q.** And the inhibition [2]?
**A.** The inhibition was “Active”.

**Q.** What about the inhibition [3] of the same molecule?
**A.** Its inhibition is “Active”.

**Q.** With `CN1CCN(S(=O)(=O)c2cccc(NC(=O)c3cccc(CN[C@@H]4C[C@H]4c4ccc(F)c(F)c4)c3)c2)CC1` as the molecule, how does the pIC50 [1] read?
**A.** Its pIC50 is 6.49.

**Q.** `O=C(Nc1ccc(N2CCOCC2)c(F)c1)c1cccc(CN[C@@H]2C[C@H]2c2ccc(F)c(F)c2)c1` was tested. Which pIC50 [1] did it give?
**A.** Its pIC50 is 6.60.

**Q.** With `O=C(O)c1ccc(CN2CCC(CN[C@@H]3C[C@H]3c3ccccc3)CC2)cc1` [GSK2879552] as the molecule, how does the pIC50 (MGC-803) read?
**A.** Its pIC50 is less than 4.19.

**Q.** What about the pIC50 (KYSE-450) of the same molecule?
**A.** Its pIC50 is less than 4.19.

**Q.** And the pIC50 (HCT-116)?
**A.** Its pIC50 is less than 4.19.

**Q.** How did the pIC50 [1] turn out when `O=C(c1cccc(CN[C@@H]2C[C@H]2c2ccc(F)c(F)c2)c1)N1CCN(c2ccccc2)CC1` was run?
**A.** Its pIC50 is 7.25.
